The values that follow come from ChEMBL document CHEMBL5149994, “Anticancer potential of indirubins in medicinal chemistry: Biological activity, structural modification, and structure-activity relationship” (Eur J Med Chem, 2021).

As usually defined, the IC50 is the point on the concentration scale where inhibition reaches its midpoint. As a reminder, the GI50 is the concentration giving 50% growth inhibition.

Experiment [1] concerns the target Glycogen synthase kinase-3 (Sus scrofa, UniProt B2LUN4+I6LNT8). Put plainly: Inhibition of porcine brain GSK-3alpha/beta incubated for 30 mins in presence of [33p]-gamma ATP by scintillation counter analysis.
Experiment [2] can be described thus: Antiproliferative activity against human TT cells assessed as cell growth inhibition measured after 48 hrs by Cell titer-Glo assay. It counts as functional, cell-based.
The next experiment addresses Aurora kinase B (Homo sapiens, UniProt Q96GD4). Put plainly: Inhibition of Aurora B (unknown origin).
For a further experiment, the target named is Aurora kinase C (Homo sapiens, UniProt Q9UQB9). Description: Inhibition of Aurora C (unknown origin).
For experiment [3], the system named is MCF7. Description: Antiproliferative activity against human MCF7 cells assessed as cell growth inhibition. It counts as functional, cell-based.
Experiment [4] concerns LXFL 529. Description: Antiproliferative activity against human LXFL 529 cells assessed as cell growth inhibition. Type of experiment: functional, cell-based.
Another experiment concerns HCT-116. Description: Antiproliferative activity against human HCT-116 cells assessed as cell growth inhibition. It counts as functional, cell-based.
Experiment [5] can be described thus: Inhibition of starfish oocyte CDK1/Cyclin B using histone H1 as substrate incubated for 10 mins in presence of [gamma-32P]ATP by scintillation counter analysis. Details: species or system Marthasterias glacialis.
In experiment [6] the target is Cyclin-dependent kinase 5/CDK5 activator 1 (Homo sapiens, UniProt Q00535). Put plainly: Inhibition of CDK5/p35 (unknown origin). It counts as protein-complex assay.
In experiment [7] the target is T1, CDK2/Cyclin A2 (Homo sapiens, UniProt P24941). Put plainly: Inhibition of CDK2/cyclin A (unknown origin). It counts as protein-complex assay.
Experiment [8] is described as follows: Inhibition of CDK2/cyclin E (unknown origin). Details: species or system Homo sapiens.
Experiment [9] deals with Cyclin-dependent kinase 4/cyclin D1 (Homo sapiens, UniProt P11802). Put plainly: Inhibition of CDK4/cyclin D1 (unknown origin). It counts as protein-complex assay.
The test system of experiment [10] is LXFL 529. Description: Cytotoxicity against human LXFL 529 cells assessed as cell growth inhibition measured after 3 days by SRB assay. Type of experiment: functional, cell-based. Conditions: LXFL 529, 72 h.
The test system of experiment [11] is MCF7. Description: Cytotoxicity against human MCF7 cells assessed as cell growth inhibition measured after 3 days by SRB assay. Type of experiment: functional, cell-based. The settings on record: MCF7, 72 h. On the technique in general: Sulforhodamine B stains cellular protein and so reports cell mass.
Experiment [12] has as its target T1, CDK2/Cyclin A2. Description: Inhibition of GST-fused human CDK2/cyclin A expressed in Escherichia coli using histone H1 as substrate in presence of [33p]-gamma ATP and MgATP.
The target in experiment [13] is Tyrosine-protein kinase Lck (Homo sapiens, UniProt P06239). Description: Inhibition of LCK (unknown origin) in presence of ATP.
Experiment [14] deals with Serine/threonine-protein kinase Sgk1 (Homo sapiens, UniProt O00141). Description: Inhibition of SGK (unknown origin) in presence of ATP.
Experiment [15] can be described thus: Antiproliferative activity against human NOZ cells assessed as cell growth inhibition measured upto 72 hrs by CCK-8 assay. Type of experiment: functional, cell-based. (Tetrazolium assays rely on reduction of a dye to a coloured formazan, in cell work by metabolically active cells.)
In another experiment the test system is HuCCT-1. Put plainly: Antiproliferative activity against human HuCCT-1 cells assessed as cell growth inhibition measured upto 72 hrs by CCK-8 assay. Type of experiment: functional, cell-based. Conditions: HuCCT-1, 72 h.
Experiment [16] in a line: Antiproliferative activity against human OZ [Human cholangiocarcinoma] cells assessed as cell growth inhibition measured upto 72 hrs by CCK-8 assay. Type of experiment: functional, cell-based.
For experiment [17], the target named is T2, Receptor-type tyrosine-protein kinase FLT3 (Homo sapiens, UniProt P36888).
T2 sequence (P36888 whole entry): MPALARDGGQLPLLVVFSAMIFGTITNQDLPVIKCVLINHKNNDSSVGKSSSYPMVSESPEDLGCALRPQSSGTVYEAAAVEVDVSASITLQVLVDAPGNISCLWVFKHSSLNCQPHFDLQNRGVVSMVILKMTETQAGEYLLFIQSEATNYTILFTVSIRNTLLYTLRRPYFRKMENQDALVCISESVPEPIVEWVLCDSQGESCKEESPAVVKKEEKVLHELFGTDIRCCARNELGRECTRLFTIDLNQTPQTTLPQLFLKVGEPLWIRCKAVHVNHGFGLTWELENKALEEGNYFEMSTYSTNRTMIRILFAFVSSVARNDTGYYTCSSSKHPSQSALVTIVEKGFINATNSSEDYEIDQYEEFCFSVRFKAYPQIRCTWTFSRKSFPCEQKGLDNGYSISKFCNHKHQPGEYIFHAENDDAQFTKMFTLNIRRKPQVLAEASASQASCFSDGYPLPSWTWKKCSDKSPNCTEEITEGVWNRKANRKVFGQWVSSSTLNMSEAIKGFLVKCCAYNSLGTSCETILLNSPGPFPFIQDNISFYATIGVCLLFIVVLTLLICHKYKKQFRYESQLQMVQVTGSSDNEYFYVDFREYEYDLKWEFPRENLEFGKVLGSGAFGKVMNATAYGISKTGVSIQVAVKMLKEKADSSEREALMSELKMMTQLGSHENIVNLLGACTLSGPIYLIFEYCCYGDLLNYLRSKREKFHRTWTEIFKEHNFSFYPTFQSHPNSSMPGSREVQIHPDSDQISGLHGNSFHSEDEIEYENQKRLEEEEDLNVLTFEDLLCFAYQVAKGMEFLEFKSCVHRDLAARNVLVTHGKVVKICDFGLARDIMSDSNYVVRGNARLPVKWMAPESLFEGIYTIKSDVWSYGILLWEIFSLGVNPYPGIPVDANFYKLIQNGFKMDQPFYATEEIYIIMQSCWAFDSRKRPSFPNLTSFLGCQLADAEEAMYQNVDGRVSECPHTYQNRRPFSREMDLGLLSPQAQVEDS
Put plainly: Inhibition of recombinant FLT3 (unknown origin) in presence of ATP by HTRF assay. On the technique in general: In TR-FRET formats the signal depends on donor and acceptor labels being close together.

The target of experiment [18] is Receptor-type tyrosine-protein kinase FLT3 (Homo sapiens, UniProt P36888, D835Y). Put plainly: Inhibition of recombinant FLT3 D835Y mutant (unknown origin) in presence of ATP by HTRF assay.
The test system of another experiment is MV4-11. Description: Antiproliferative activity against human MV4-11 cells assessed as cell growth inhibition measured after 72 hrs by tetrazolium staining based WST-8 assay. It counts as functional. Conditions: MV4-11, 72 h.
The subject of a further experiment is HL-60. Description: Antiproliferative activity against human HL-60 cells assessed as cell growth inhibition measured after 3 days by trypan blue staining based inverted microscope method. Type of experiment: functional. The settings on record: HL-60, 72 h, time 3 day.
A further experiment is filed under the species Danio rerio. Put plainly: Antiangiogenic activity in transgenic zebrafish embryo assessed as inhibition of angiogenic vessel growth incubated for 24 hrs by FITC staining based analysis. It counts as functional, organism-based.
A further experiment has as its system HUVEC. Put plainly: Antiproliferative activity against HUVEC cells assessed as cell growth inhibition measured after 3 days by [3H]-thymidine incorporation assay. It counts as functional, cell-based. Conditions: Homo sapiens.
The target of experiment [19] is T2, Receptor-type tyrosine-protein kinase FLT3. Description: Inhibition of FLT3 (unknown origin).
Experiment [20] addresses Fibroblast growth factor receptor 1 (Homo sapiens, UniProt P11362). Description: Inhibition of FGFR1 (unknown origin).
The nature of experiment [21]: Inhibition of VEGFR (unknown origin). Details: species or system Homo sapiens.
The subject of experiment [22] is A549. Description: Antitumor activity against human A549 cells xenografted in CD1 mouse assessed as reduction in tumour volume at 6 mg/kg, sc treated 3 times a week for 25 days in presence of thymoquinone relative to control. Type of experiment: functional. Set-up: scale not given: the % may be the effect or the level left. Conditions: time 25 day.
Experiment [23] relates to A549. Description: Antitumor activity against human A549 cells xenografted in CD1 mouse assessed as reduction in tumour weight at 6 mg/kg, sc treated 3 times a week for 25 days in presence of thymoquinone relative to control. Type of experiment: functional. Details: scale not given: the % may be the effect or the level left. Conditions: time 25 day.
For experiment [24], the target named is Glycogen synthase kinase-3 (Homo sapiens, UniProt P49840+P49841). Description: Inhibition of GSK3 (unknown origin). It counts as protein assay.
In another experiment the target is Aurora kinase A (Homo sapiens, UniProt O14965). Description: Inhibition of Aurora A (unknown origin).
For the next experiment, the system named is IMR-32. Put plainly: Antiproliferative activity against human IMR-32 cells assessed as cell growth inhibition. It counts as functional, cell-based.
A further experiment relates to SK-N-SH. Description: Antiproliferative activity against human SK-N-SH cells assessed as cell growth inhibition. Type of experiment: functional, cell-based.

The structures appear in SMILES notation.

Sequence of Aurora kinase B (Q96GD4 whole entry): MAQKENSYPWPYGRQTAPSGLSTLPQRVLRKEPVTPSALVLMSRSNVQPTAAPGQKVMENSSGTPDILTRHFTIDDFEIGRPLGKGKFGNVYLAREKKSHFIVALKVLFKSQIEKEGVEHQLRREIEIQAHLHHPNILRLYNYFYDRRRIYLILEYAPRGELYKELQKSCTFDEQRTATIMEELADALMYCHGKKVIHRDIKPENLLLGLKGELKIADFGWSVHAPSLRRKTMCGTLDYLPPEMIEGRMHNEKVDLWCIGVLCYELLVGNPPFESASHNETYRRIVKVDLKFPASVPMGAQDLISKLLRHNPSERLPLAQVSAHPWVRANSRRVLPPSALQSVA
Sequence of Aurora kinase C (Q9UQB9 whole entry): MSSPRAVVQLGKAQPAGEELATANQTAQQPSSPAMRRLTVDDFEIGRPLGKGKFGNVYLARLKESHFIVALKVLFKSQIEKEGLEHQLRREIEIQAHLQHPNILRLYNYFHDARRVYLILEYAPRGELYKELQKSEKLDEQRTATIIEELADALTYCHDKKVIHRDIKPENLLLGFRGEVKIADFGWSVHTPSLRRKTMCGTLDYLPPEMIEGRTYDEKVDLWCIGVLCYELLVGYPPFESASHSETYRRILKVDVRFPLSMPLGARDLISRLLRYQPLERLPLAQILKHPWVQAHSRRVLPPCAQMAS
Sequence of Serine/threonine-protein kinase Sgk1 (O00141 whole entry): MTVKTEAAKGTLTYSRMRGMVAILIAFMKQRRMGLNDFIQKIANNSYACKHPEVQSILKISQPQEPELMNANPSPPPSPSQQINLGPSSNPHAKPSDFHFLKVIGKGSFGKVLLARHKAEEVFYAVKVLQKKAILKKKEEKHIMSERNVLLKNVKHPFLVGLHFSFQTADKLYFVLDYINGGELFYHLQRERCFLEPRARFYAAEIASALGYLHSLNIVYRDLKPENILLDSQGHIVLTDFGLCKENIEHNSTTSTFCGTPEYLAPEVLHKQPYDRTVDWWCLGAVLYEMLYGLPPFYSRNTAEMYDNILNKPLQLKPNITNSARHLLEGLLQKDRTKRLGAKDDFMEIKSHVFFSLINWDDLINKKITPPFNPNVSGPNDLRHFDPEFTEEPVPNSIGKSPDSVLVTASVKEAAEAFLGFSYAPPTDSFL
Sequence of Tyrosine-protein kinase Lck (P06239 whole entry): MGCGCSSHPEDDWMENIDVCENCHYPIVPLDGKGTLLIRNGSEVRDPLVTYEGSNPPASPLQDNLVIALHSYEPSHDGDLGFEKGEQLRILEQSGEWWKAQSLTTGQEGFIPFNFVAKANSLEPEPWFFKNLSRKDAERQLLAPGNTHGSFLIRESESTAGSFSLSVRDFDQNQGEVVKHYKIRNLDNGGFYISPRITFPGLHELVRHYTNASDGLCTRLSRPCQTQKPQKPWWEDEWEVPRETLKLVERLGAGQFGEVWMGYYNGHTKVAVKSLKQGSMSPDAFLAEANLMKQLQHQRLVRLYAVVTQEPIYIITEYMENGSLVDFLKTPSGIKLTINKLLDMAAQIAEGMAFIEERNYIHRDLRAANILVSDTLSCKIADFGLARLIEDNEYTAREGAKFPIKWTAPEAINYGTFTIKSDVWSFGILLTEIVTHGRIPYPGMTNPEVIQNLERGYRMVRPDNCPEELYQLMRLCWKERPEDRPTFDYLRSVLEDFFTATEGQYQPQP
Sequence of Fibroblast growth factor receptor 1 (P11362 whole entry): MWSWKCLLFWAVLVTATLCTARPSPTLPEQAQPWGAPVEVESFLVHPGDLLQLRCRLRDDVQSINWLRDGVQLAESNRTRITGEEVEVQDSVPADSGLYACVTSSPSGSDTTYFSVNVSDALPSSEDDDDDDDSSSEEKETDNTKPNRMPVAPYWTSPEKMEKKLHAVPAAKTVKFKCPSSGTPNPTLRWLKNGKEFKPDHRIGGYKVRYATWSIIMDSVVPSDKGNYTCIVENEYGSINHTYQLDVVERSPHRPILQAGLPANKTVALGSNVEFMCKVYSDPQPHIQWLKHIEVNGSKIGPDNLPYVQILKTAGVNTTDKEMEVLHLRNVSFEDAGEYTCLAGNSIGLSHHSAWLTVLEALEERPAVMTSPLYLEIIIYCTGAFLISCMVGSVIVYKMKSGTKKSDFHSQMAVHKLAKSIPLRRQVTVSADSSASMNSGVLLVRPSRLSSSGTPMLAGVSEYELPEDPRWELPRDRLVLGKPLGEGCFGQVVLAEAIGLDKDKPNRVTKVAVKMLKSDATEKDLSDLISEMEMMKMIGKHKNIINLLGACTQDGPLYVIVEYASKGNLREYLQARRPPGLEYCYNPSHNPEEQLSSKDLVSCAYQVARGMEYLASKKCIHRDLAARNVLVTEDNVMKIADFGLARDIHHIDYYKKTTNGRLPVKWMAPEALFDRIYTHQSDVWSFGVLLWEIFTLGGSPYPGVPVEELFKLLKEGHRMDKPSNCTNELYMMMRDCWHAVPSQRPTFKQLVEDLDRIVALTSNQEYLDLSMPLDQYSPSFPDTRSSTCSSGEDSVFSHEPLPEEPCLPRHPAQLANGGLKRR
Sequence of Cyclin-dependent kinase 5/CDK5 activator 1 (Q00535 whole entry): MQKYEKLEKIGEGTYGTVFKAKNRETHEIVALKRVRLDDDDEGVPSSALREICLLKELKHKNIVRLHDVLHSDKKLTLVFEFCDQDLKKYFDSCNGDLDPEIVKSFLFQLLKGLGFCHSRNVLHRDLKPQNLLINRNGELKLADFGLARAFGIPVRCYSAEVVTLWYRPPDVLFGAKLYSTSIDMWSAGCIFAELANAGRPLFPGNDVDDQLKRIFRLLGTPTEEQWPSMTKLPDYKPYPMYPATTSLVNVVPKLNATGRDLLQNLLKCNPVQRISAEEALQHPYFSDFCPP
Sequence of Cyclin-dependent kinase 5/CDK5 activator 1 (Q15078 whole entry, further chain): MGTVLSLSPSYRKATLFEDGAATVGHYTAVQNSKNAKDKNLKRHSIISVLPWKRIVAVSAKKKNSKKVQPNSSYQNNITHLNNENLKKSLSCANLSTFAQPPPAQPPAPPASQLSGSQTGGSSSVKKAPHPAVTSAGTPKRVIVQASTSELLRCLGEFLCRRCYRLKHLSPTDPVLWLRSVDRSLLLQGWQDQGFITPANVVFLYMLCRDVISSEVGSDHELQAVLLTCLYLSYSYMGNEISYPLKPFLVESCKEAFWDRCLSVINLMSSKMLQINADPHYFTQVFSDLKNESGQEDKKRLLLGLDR
Sequence of Aurora kinase A (O14965 whole entry): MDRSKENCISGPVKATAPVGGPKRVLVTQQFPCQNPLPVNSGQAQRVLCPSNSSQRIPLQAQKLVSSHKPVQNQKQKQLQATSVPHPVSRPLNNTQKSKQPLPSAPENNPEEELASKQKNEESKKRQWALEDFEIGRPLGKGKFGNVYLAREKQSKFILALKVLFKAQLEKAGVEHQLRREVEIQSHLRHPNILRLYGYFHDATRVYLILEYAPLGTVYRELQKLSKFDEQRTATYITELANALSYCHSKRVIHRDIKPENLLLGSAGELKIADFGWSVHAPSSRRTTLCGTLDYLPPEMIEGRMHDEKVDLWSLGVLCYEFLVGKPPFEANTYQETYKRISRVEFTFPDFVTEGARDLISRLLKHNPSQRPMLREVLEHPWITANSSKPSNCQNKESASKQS
Sequence of Cyclin-dependent kinase 4/cyclin D1 (P11802 whole entry): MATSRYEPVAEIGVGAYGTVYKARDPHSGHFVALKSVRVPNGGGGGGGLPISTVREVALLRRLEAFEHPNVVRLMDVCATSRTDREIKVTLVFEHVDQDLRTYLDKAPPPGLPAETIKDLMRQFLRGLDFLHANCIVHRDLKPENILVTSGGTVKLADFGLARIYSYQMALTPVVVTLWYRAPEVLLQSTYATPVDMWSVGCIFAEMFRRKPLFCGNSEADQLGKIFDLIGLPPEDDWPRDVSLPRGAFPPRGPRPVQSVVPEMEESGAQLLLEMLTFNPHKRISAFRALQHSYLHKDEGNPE
Sequence of Cyclin-dependent kinase 4/cyclin D1 (P24385 whole entry, further chain): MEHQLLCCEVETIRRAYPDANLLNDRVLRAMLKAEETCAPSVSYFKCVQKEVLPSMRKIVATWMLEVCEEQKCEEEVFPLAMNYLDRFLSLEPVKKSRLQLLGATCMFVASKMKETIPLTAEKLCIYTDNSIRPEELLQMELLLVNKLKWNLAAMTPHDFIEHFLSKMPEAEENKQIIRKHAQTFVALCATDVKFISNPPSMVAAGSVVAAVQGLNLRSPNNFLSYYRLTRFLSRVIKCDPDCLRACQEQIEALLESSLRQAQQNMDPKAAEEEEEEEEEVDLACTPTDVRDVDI

Take `O=C1Nc2c(Br)cccc2/C1=C1/Nc2ccccc2/C1=N\O`: the IC50 worked out at 32000 nM in experiment [1], 4100 nM in experiment [2], 4600 nM against Aurora kinase B and 100 nM on Aurora kinase C.

Turning to `COc1ccc2c(c1)/C(=C1/Nc3ccccc3/C1=N\OCCO[C@@H]1O[C@H](CO)[C@@H](O)[C@H](O)[C@H]1O)C(=O)N2`, the results for the IC50 with MCF7 [3], in the experiment with LXFL 529 [4] and in the experiment with HCT-116 were 1200 nM, 500 nM and 500 nM, respectively.

As to `O=C1Nc2ccc(S(=O)(=O)O)cc2/C1=C1/Nc2ccccc2C1=O`, the IC50 came out at 55 nM in experiment [5] and 65 nM in experiment [6].

With `O=C1Nc2ccccc2/C1=C1/Nc2ccccc2/C1=N\O`, the IC50 at CDK2/Cyclin A2 [7] was found to be 440 nM; in experiment [8], 250 nM; in [9] it was 3330 nM; in the experiment with LXFL 529 [10], 3000 nM; with MCF7 [11], 3300 nM; on CDK2/Cyclin A2 [12] it was 590 nM. In addition, the IC50 worked out at 300 nM in experiment [13]; 380 nM in experiment [14]; 4400 nM in [15]; 5000 nM in the experiment with HuCCT-1; 4700 nM in experiment [16]; 79 nM in experiment [17]. The IC50 was found to be 101 nM in experiment [18]; 30 nM in the experiment on MV4-11; 310 nM in the experiment filed under Danio rerio; 360 nM in the experiment on HUVEC; 101 nM in [19]; 2500 nM in experiment [20]. In experiment [21], this compound returned an IC50 of 1480 nM. Besides, the GI50 in the experiment on HL-60 came to 36600 nM. For the same compound, the Activity is reported as 83.5% with A549 [22] and 66.7% in the experiment with A549 [23].

For `Cl.Cl.O=C1Nc2cc(Br)ccc2/C1=C1/Nc2ccccc2/C1=N\OCCN1CCNCC1`, the IC50 in [24] worked out at 1.3 nM.

As for `CC(=O)O/N=C1/C(=C2/C(=O)Nc3c(Br)cccc32)Nc2ccccc21`, the IC50 was found to be 20000 nM against Aurora kinase A, 8000 nM against Aurora kinase B and 100 nM against Aurora kinase C.

Turning to `O=C1Nc2ccccc2/C1=C1/Nc2ccccc2/C1=N\OCC1CO1` (configuration not stated), the values for the IC50 in the experiment on IMR-32 and with SK-N-SH were 160 nM and 70 nM, respectively.
